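Grown in 96-well plates, cells were treated for 48 hours with each compound at five concentrations. Insufficient inhibition: endpoint recorded as highest concentration tested. Here, GI50 denotes the concentration required for 50% inhibition of growth.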 The source made the active and inactive calls. Cut-off read from the data, not from the text of the source: active = GI50 up to about 1.1 µM and inactive = higher.

Among the test systems are OVCAR-8; OVCAR-4; HOP-92; HCC 2998; PC-3; SF-539; A498; MDA-N; Hs-578T; UACC-62; T47D; NCI/ADR-RES; A549; SK-MEL-5; OVCAR-5; EKVX; IGROV-1; M19-MEL; NCI-H522; CCRF-CEM.
Test in all cases: NCI-60 cell line screen, 48 h

For the compound `Nc1ccccc1C(=O)NC(=O)Nc1ccc(Oc2ncc(Br)cn2)c(Cl)c1`, the GI50 in the experiment with OVCAR-8 was 0.0119 µM (active); in the experiment with OVCAR-4 it was 0.698 µM (active); in the experiment on HOP-92, 0.217 µM (active); in the experiment on HCC 2998, 0.0116 µM (active); with PC-3, < 0.01 µM (active); in the experiment on SF-539 it was < 0.01 µM (active). In addition, the GI50 in the experiment with A498 is < 0.01 µM (active); in the experiment with MDA-N, < 0.01 µM (active); in the experiment with Hs-578T, < 0.01 µM (active); in the experiment with UACC-62, < 0.01 µM (active); in the experiment with T47D it was 51.8 µM (inactive); in the experiment on NCI/ADR-RES, < 0.01 µM (active). Besides, the GI50 with A549 was < 0.01 µM (active); with SK-MEL-5, < 0.01 µM (active); with OVCAR-5, 0.438 µM (active); in the experiment with EKVX, 0.247 µM (active); in the experiment on IGROV-1, < 0.0118 µM (active); in the experiment on M19-MEL it was < 0.01 µM (active). Further, the GI50 in the experiment with NCI-H522 was < 0.01 µM (active).
As for `O=S(O)CCCCSSCc1ccccc1CSSCCCCS(=O)O`, the GI50 in the experiment on OVCAR-8 was 17.1 µM (inactive); in the experiment on OVCAR-4 it was 4.21 µM (inactive); in the experiment on HOP-92, 21.9 µM (inactive); in the experiment with HCC 2998 it was 19 µM (inactive); in the experiment on SF-539 it was 15.1 µM (inactive); in the experiment on A498, 40.7 µM (inactive). For the same compound, the GI50 in the experiment on UACC-62 was 10.5 µM (inactive); in the experiment on A549, 28.8 µM (inactive); in the experiment on SK-MEL-5, 8.79 µM (inactive); in the experiment with OVCAR-5, 95.1 µM (inactive); in the experiment with EKVX it was 22.2 µM (inactive); with CCRF-CEM, 3.88 µM (inactive). Moreover, the GI50 in the experiment on IGROV-1 is 49.4 µM (inactive); in the experiment with M19-MEL it was 4.65 µM (inactive); in the experiment on NCI-H522 it was 4.43 µM (inactive).
For `CN(C)CC(=O)N1CCc2c([nH]c3ccccc23)C1c1cccnc1` (centres undefined), the GI50 with OVCAR-8 was > 100 µM (inactive); in the experiment on OVCAR-4, > 100 µM (inactive); in the experiment with HOP-92, 26.9 µM (inactive); with HCC 2998, > 100 µM (inactive); in the experiment with SF-539, > 100 µM (inactive); with A498 it was > 100 µM (inactive). Besides, the GI50 with UACC-62, in the experiment with A549, in the experiment on SK-MEL-5, in the experiment with OVCAR-5, with EKVX and with CCRF-CEM was > 100 µM (inactive) in each case. Further, the GI50 in the experiment on IGROV-1, with M19-MEL and in the experiment with NCI-H522 was > 100 µM (inactive) in each case.
Turning to `CCCCCCCC/C=C1\CCC(CN(C)C)C1=O` (centres undefined), the GI50 in the experiment on OVCAR-8 is 3.23 µM (inactive); with OVCAR-4, 13.7 µM (inactive); in the experiment with HOP-92 it was 3.33 µM (inactive); in the experiment with HCC 2998, 9.57 µM (inactive); in the experiment on SF-539, 4.82 µM (inactive); in the experiment on A498 it was 16.5 µM (inactive). In addition, the GI50 is 7.41 µM (inactive) in the experiment on UACC-62; 19.3 µM (inactive) with A549; 8.45 µM (inactive) with SK-MEL-5; 20.2 µM (inactive) in the experiment on OVCAR-5; 9.06 µM (inactive) in the experiment with EKVX; 1.54 µM (inactive) in the experiment on CCRF-CEM. The results for the GI50 in the experiment with IGROV-1, with M19-MEL and in the experiment with NCI-H522 were 8.17 µM (inactive), 3.36 µM (inactive) and 3.54 µM (inactive), respectively.
For `CC(=O)ON(C(C)=O)C1C(COC(c2ccccc2)(c2ccccc2)c2ccccc2)OC2OC3(CCCC3)OC21` (centres undefined), the GI50 with OVCAR-8 is 5.13 µM (inactive); in the experiment on OVCAR-4, 7.8 µM (inactive); in the experiment on HOP-92, 2.42 µM (inactive); in the experiment with HCC 2998 it was > 50.4 µM (inactive); in the experiment on SF-539, > 100 µM (inactive); in the experiment with A498, 25.9 µM (inactive). Moreover, the GI50 in the experiment with UACC-62 was > 42 µM (inactive); in the experiment on A549, 4.59 µM (inactive); in the experiment with SK-MEL-5, 6.3 µM (inactive); in the experiment on OVCAR-5, > 100 µM (inactive); in the experiment with EKVX it was 16.9 µM (inactive); in the experiment with CCRF-CEM, 4.13 µM (inactive). In addition, the GI50 was > 100 µM (inactive) with IGROV-1, 6.62 µM (inactive) in the experiment with M19-MEL and 2.46 µM (inactive) in the experiment with NCI-H522.
In the case of `CCN1C(=O)/C(=C\c2coc3ccccc3c2=O)SC1=S`, the GI50 is > 100 µM (inactive) in the experiment on OVCAR-8; > 100 µM (inactive) with OVCAR-4; > 100 µM (inactive) in the experiment on HOP-92; > 100 µM (inactive) in the experiment with HCC 2998; 32.8 µM (inactive) in the experiment with SF-539; > 100 µM (inactive) with A498. In addition, the GI50 with UACC-62 is 68.7 µM (inactive); with A549 it was > 100 µM (inactive); in the experiment with SK-MEL-5 it was > 100 µM (inactive); in the experiment with OVCAR-5, > 100 µM (inactive); with EKVX, > 100 µM (inactive); in the experiment on CCRF-CEM it was 65.6 µM (inactive). Besides, the GI50 in the experiment with IGROV-1 is > 100 µM (inactive); in the experiment with M19-MEL, > 100 µM (inactive); in the experiment with NCI-H522, 91.4 µM (inactive).
Consider `CN1C(c2ccccc2)CC(=O)C(N)C1c1ccccc1` (centres undefined), for which the GI50 with OVCAR-8 was 26.8 µM (inactive); in the experiment with OVCAR-4, 49.4 µM (inactive); in the experiment with HOP-92 it was 25.8 µM (inactive); in the experiment on HCC 2998, 20.8 µM (inactive); in the experiment on SF-539 it was 42.1 µM (inactive); in the experiment with A498, > 67.6 µM (inactive). Further, the GI50 with UACC-62 is 27.2 µM (inactive); with A549, 38.7 µM (inactive); in the experiment with SK-MEL-5, 18.8 µM (inactive); in the experiment on OVCAR-5, 35.4 µM (inactive); with EKVX, > 53 µM (inactive); with CCRF-CEM it was 25.2 µM (inactive). In addition, the GI50 in the experiment with IGROV-1 is 43.5 µM (inactive); in the experiment with M19-MEL it was 22.7 µM (inactive); with NCI-H522, 17 µM (inactive).
`CS(=O)(=O)c1cc(=O)c2ccccc2s1`: the GI50 in the experiment with OVCAR-8 is 2.93 µM (inactive); in the experiment with OVCAR-4, 2.9 µM (inactive); in the experiment with HOP-92, 1.8 µM (inactive); in the experiment on HCC 2998, 14 µM (inactive); with PC-3, 17.6 µM (inactive); with SF-539 it was 13.2 µM (inactive). The GI50 in the experiment with A498 was 17.1 µM (inactive); in the experiment on MDA-N, 4.46 µM (inactive); with Hs-578T it was 26.6 µM (inactive); in the experiment with UACC-62, 12.2 µM (inactive); in the experiment with T47D, 3.08 µM (inactive); in the experiment with NCI/ADR-RES, 18 µM (inactive). Further, the GI50 was 18.4 µM (inactive) with A549; 14.3 µM (inactive) with SK-MEL-5; 11.8 µM (inactive) in the experiment on OVCAR-5; 9.06 µM (inactive) in the experiment with EKVX; 1.53 µM (inactive) in the experiment with CCRF-CEM; 18.5 µM (inactive) with IGROV-1. In addition, the results for the GI50 in the experiment on M19-MEL and with NCI-H522 were 7.69 µM (inactive) and 1.24 µM (inactive), respectively.
On to `CCCCCCCCCCCCCCCCc1c(C(=O)OC)[nH]c(=S)[nH]c1=O`, for which the GI50 in the experiment with OVCAR-8 was > 50 µM (inactive); in the experiment with OVCAR-4, > 50 µM (inactive); in the experiment with HOP-92 it was 12.1 µM (inactive); in the experiment on HCC 2998, > 50 µM (inactive); in the experiment on SF-539 it was > 50 µM (inactive); in the experiment on A498 it was > 50 µM (inactive). Moreover, the GI50 in the experiment on UACC-62, in the experiment with A549, with SK-MEL-5, in the experiment on OVCAR-5, with EKVX and in the experiment on CCRF-CEM was > 50 µM (inactive) each time. Moreover, the GI50 in the experiment with IGROV-1, in the experiment on M19-MEL and in the experiment on NCI-H522 was > 50 µM (inactive) each time.
In the case of `O=Cc1cc2sc(C=O)cc2s1`, the GI50 is > 100 µM (inactive) with OVCAR-8; > 100 µM (inactive) with OVCAR-4; > 100 µM (inactive) with HOP-92; > 100 µM (inactive) in the experiment with HCC 2998; > 100 µM (inactive) with SF-539; 17.7 µM (inactive) in the experiment with A498. Besides, the GI50 was 40.6 µM (inactive) in the experiment with UACC-62; > 100 µM (inactive) in the experiment with A549; > 100 µM (inactive) in the experiment on SK-MEL-5; > 100 µM (inactive) in the experiment with OVCAR-5; > 100 µM (inactive) in the experiment on EKVX; > 100 µM (inactive) in the experiment on CCRF-CEM. The GI50 was > 100 µM (inactive) in the experiment on IGROV-1, > 100 µM (inactive) with M19-MEL and 93.3 µM (inactive) in the experiment on NCI-H522.
As to `CN(C)CN(C)c1nc(N(C)C)nc(N(C)C)n1`, the GI50 in the experiment with OVCAR-8, in the experiment with OVCAR-4, with HOP-92, with HCC 2998, in the experiment with SF-539 and in the experiment with A498 was > 100 µM (inactive) throughout. The GI50 in the experiment on UACC-62, in the experiment with A549, in the experiment on SK-MEL-5, with OVCAR-5, in the experiment on EKVX and in the experiment with CCRF-CEM was > 100 µM (inactive) throughout. Also, the GI50 with IGROV-1, with M19-MEL and in the experiment on NCI-H522 was > 100 µM (inactive) each time.
For `O=C1C2C3C=CC(C2C(=O)N1COP(=O)(O)O)C1C2C(=O)N(COP(=O)(O)O)C(=O)C2C31` (centres undefined), the GI50 in the experiment on OVCAR-8, with OVCAR-4, with HOP-92, with HCC 2998, in the experiment with SF-539 and in the experiment on A498 was > 100 µM (inactive) each time. Besides, the GI50 in the experiment on UACC-62 was > 100 µM (inactive); in the experiment on A549, > 69.7 µM (inactive); in the experiment with SK-MEL-5 it was > 100 µM (inactive); with OVCAR-5, > 100 µM (inactive); with EKVX it was > 100 µM (inactive); with CCRF-CEM, > 42.4 µM (inactive). In addition, the GI50 in the experiment with IGROV-1, in the experiment on M19-MEL and with NCI-H522 was > 100 µM (inactive) each time.

Values taken from ChEMBL document CHEMBL1201862, “PubChem BioAssay data set” (2004).
